Assay results taken from article PMC12587161, “Chidamide (a Histone Deacetylase Inhibitor) Plus Abiraterone in Metastatic Castration‐Resistant Prostate Cancer (mCRPC): A Phase Ib Trial” (MedComm, 2025).
“Also recorded” adds a separate entry of the source. Where two headings read alike, the source gives them in different places.

Legend:
[1] = test system: chemotherapy-naïve mCRPC patients; parameters: method as in PMID 19608618; details: cited from earlier work
patients with mCRPC = type: in vivo
Experimental: Chidamide was tested in three dose groups (20 mg, 25 mg, 30 mg). The starting dose was 20 mg per dose, administered twice a week, with a treatment cycle lasting 4 weeks. Dosing occurred on fixed days of each week, with two doses administered on the same day each week for the duration of the 4‐week cycle. Three participants are enrolled in each dosage group. If no DLT occurred during the first treatment cycle, the dose was escalated and three patients were enrolled at the next dose level. However, if one DLT was observed, three additional patients were added at the same dose level for further assessment. If no new DLTs occur, the study continues to the next dose level. If two or more of the six patients at a given dose level developed a DLT, further dose escalation was halted, and the prior dose level was determined to be the MTD. Abiraterone was combined with the second administration of chidamide on Day 4 of the first cycle. The observation for DLT was in the period of first cycle of treatment. […]

[2] = Chidamide pharmacokinetics in patients (compartmental modeling, Phoenix Winnonlin 7.0); type: in vivo; details: male, human, plasma, mCRPC patients, after first administration; for AUC(0-t): read-out: AUC0–24 h, Mean; for clearance: read-out: CL, Mean (converted); for Vd: read-out: Vss, Mean; for half-life: read-out: t 1/2, Mean (converted)
Experimental: From patients administered with different doses of chidamide, blood samples were collected in a sodium heparin tube at the time points of 2, 4, 8, 12, and 24 h after the completion of the first administration of chidamide (Day 1) in treatment cycle 1 and cycle 2. PK parameters were estimated from chidamide concentrations measured using […] samples taken at specified time points postdosing, and were analyzed by Phoenix Winnonlin 7.0.

[3] = test system: AR downstream genes (PSA, TMPRSS2, SLC45A3) in C4-2 cells; test: RT-PCR of AR downstream genes; type: cell-based; details: chidamide 0.5 µM
Experimental: (§1) FIGURE 5 Chidamide inhibited AR pathway and CRPC progression and in vitro. (A) Effect of chidamide and enzalutamide on cell viability. C4‐2 cells were treated with DHT (10 nM), chidamide (0.5 µM), and/or enzalutamide (20 µM) for 96 h. Cell viability was measured by CCK‐8. […] DHT (10 nM) served as control.
Total cellular RNA was isolated using EZ‐press RNA Purification Kit (EZBioscience, USA) according to the manufacturer's protocol. For first‐strand cDNA synthesis, 5 µg of total RNA was reverse‐transcribed using the PrimeScript RT Master Mix (Perfect Real Time, TaKaRa Bio, Kusatsu, Japan) followed by quantitative PCR (qPCR) with 2 × Taq Master Mix (Vazyme Biotech Co., Ltd, China) according to the manufacturer's instructions. Real‐time PCR analyses were conducted using the Biorad CFX96 system and the appropriate primers to estimate the mRNA expression. The primer sequences were as follows: for PSA, forward 5′‐[…]‐3′ and reverse 5′‐[…]‐3′; for TMPRSS2, forward 5′‐[…]‐3′ and reverse 5′‐[…]‐3′; for SLC45A3, forward 5′‐[…]‐3′ and reverse 5′‐[…]‐3′; for GAPDH, forward 5′‐[…]‐3′ and reverse 5′‐[…]‐3′.

C4-2 cells = test: Cell viability by CCK-8; type: cell-based; details: DHT 10 nM, chidamide 0.5 µM and/or enzalutamide 20 µM, 96 h
Experimental: as §1
C4‐2 cell line was provided by Prof. Yonghong Li (Sun Yat‐sen University Cancer Center) and validated by short tandem repeat (STR). C4‐2 cells were grown in RPMI 1640 containing 10% FBS.

C/C=C1\NC(=O)[C@H]2CSSCC/C=C/[C@H](CC(=O)N[C@H](C(C)C)C(=O)N2)OC(=O)[C@H](C(C)C)NC1=O [romidepsin]
Time to progression (TTP) [1]: 1.8 months

Nc1cc(F)ccc1NC(=O)c1ccc(CNC(=O)/C=C/c2cccnc2)cc1 [chidamide, Chidamide]
Chidamide-related SAEs (patients with mCRPC; all 18 patients): No chidamide‐related SAEs were observed
Dose-limited toxicity (DLT) (patients with mCRPC; dose escalation 20, 25, 30 mg chidamide, first cycle): none of the patients experienced a DLT
Cmax ([2]; 20 mg (N = 4)): 79.2 ng/mL
AUC(0-t) ([2]; 20 mg (N = 4)): 1330 ng·h/mL
clearance ([2]; 20 mg (N = 4)): 170 mL/min
Vd ([2]; 20 mg (N = 4)): 207 L
half-life ([2]; 20 mg (N = 4)): 13.9 h
Cmax ([2]; 25 mg (N = 11)): 91.2 ng/mL
AUC(0-t) ([2]; 25 mg (N = 11)): 1160 ng·h/mL
clearance ([2]; 25 mg (N = 11)): 260 mL/min
Vd ([2]; 25 mg (N = 11)): 326 L
half-life ([2]; 25 mg (N = 11)): 13.6 h
Cmax ([2]; 30 mg (N = 3)): 296 ng/mL
AUC(0-t) ([2]; 30 mg (N = 3)): 2860 ng·h/mL
clearance ([2]; 30 mg (N = 3)): 188 mL/min
Vd ([2]; 30 mg (N = 3)): 132 L
half-life ([2]; 30 mg (N = 3)): 8.06 h
Relative mRNA expression of PSA [3]: significantly downregulated; also recorded: decreased
Relative mRNA expression of SLC45A3 [3]: significantly downregulated; also recorded: decreased
Relative mRNA expression of TMPRSS2 [3]: significantly downregulated; also recorded: decreased
Cell viability (C4-2 cells): effectively inhibits the cell viability
